Results as given in patent US10100056B2, “SHIP1 modulators and methods related thereto” (Aquinox Pharmaceuticals (Canada) Inc., priority 2013, dated 2018).
Marks after values point to notes of the source that are not given here.

target: T1, His-hSHIP1 enzyme (Homo sapiens, UniProt Q92835); experiment: His-hSHIP1 activity (phosphatase assay, IP4 substrate, Biomol Green); assay type: biochemical; set-up: key to Scoring, Approach 2 (Initial velocity Ratio): +++: higher than reference or reference - 15%; ++: reference - 16% to reference - 30%; +: reference - 31% or lower; −: inhibitor; settings: first approach: IP4 50 μM, test compound 0-300 μM; values marked with asterisk
T1 construct: His
T1 sequence (Q92835 1-1189): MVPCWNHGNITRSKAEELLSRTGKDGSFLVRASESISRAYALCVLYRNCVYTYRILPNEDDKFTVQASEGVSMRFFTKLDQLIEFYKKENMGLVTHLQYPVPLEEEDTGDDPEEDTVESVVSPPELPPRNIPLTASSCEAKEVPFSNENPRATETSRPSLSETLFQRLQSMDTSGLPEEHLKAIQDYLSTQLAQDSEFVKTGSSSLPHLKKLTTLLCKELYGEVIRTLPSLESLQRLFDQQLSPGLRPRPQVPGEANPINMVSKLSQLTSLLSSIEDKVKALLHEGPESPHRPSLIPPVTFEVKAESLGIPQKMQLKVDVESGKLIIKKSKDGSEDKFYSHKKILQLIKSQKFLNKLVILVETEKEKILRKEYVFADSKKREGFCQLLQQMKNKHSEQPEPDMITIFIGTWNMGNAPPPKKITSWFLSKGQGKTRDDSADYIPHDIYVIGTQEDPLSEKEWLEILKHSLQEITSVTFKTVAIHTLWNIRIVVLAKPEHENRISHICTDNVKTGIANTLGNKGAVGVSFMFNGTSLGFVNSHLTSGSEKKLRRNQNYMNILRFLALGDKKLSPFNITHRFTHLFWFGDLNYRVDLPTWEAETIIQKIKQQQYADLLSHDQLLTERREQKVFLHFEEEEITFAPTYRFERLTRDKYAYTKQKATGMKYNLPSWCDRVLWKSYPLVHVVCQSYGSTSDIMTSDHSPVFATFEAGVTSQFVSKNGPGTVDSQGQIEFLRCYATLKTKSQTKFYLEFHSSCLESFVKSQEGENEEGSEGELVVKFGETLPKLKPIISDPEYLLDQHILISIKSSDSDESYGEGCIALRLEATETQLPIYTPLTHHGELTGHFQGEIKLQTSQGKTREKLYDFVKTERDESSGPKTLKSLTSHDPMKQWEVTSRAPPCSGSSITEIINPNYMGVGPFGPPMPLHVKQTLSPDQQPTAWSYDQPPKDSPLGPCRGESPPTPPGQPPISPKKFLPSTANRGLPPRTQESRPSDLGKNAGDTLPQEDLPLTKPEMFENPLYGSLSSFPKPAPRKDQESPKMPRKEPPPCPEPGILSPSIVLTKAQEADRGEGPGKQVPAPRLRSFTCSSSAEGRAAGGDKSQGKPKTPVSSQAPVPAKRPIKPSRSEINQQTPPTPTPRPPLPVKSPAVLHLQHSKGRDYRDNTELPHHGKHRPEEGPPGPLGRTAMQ
Protocol: Test compounds are dissolved in 95% ethanol to form stock solutions. Before screening, the stock solutions are diluted with Phosphatase Assay Buffer (20 mM Tris-HCL, 10 mM MgCl2 pH 7.5, 0.02% Tween 20) to form working assay solutions that contain 10% ethanol. The assay is carried out on 96-well microtiter plates using a modified procedure of that reported by Ong et al., Blood 110, 1942-1949, 2007 and Yang et al., Org Lett 7, 1073-1076, 2005, both of which references are incorporated herein by reference in their entirety.
Data were generated by one of two variant methods. Test compounds are screened by one of two approaches described as follows. In the first approach, each reaction contains 5 μL of His-hSHIP1 enzyme (5-20 ng), 10 μL of the substrate, 1,3,4,5-inositol tetrakisphosphate (IP4; 50 μM final), 5 μL of Phosphatase Assay Buffer, and 5 µL of test compound at various concentrations in 10% ethanol (0-300 μM final). Control blanks are also prepared by replacing His-hSHIP1 enzyme, IP4, or test compounds with Phosphatase Assay Buffer. After adding the reaction components in a 96-well microtiter plate on ice, the reaction is mixed by briefly shaking the plate vigorously. The reaction is then incubated at 37° C. for 15 min with gentle shaking followed by addition of 100 μL of Biomol Green Reagent (BIOMOL, PA, USA) to terminate the reaction. The free phosphate released from IP4 by His-hSHIP1 binds to the Biomol Green Reagent, which turns the dye to green color. After incubating the mixture for 20 min at room temperature for color development, the absorbance is read with SpectraMax Plus 96-well plate reader (Molecular Devices, Sunnyvale, Calif., USA) at a wavelength of 650 nm.
In the second approach, a master mix is prepared that contains 50 μL of His-hSHIP1 enzyme (0.4-1.6 ng/μL final), 25 μL of the substrate, IP4 (25 or 250 μM final), and 50 μL of test compound in 3.3% ethanol (100 μL final). Control blanks are also prepared by replacing His-hSHIP1 enzyme, IP4, or test compounds with Phosphate Assay Buffer. […] Each reaction component is preincubated at 37° C. for 30 min before adding to a 96-well microtiter plate. The master mix is then incubated at 37° C. At time 0, 20, and 30 min, 25 μL of the master mix is removed and transferred to a new 96-well microtiter plate, to which 100 μL of Biomol Green Reagent is added to stop the reaction. After incubating the mixture for 20 min at room temperature for color development, the absorbance is read with SpectraMax Plus 96-well plate reader at a wavelength of 650 nm. Phosphate released is plotted against time to calculate the initial velocities (i.e., slope of the graph) at each IP4 concentration. The initial velocities are baseline corrected and the ratio of initial velocities (IP425/IP4250) is calculated and used to rate the test compounds.

Row | SMILES | Scoring, Approach 1 (% increase relative to background)
1 | C=C1CC[C@H]2[C@H](CO)[C@@H]([C@@]3(C)CC[C@H](N)C[C@@H]3CO)CC[C@]12C [Cpd. No. 63, ((1S,2R,5S)-5-amino-2-((3aS,4R,5S,7aS)-4-(hydroxymethyl)-7a-methyl-1-methyleneoctahydro-1H-inden-5-yl)-2-methylcyclohexyl)methanol] | ++* (50 ≤ x < 65)

same assay, conditions: second approach: ratio of initial velocities IP4 25/250 μM compared with reference compound; values without asterisk

Row | SMILES | Scoring, Approach 2 (Initial velocity Ratio)
2 | C=C1CC[C@H]2[C@H](CNCc3ccccc3C)[C@@H]([C@@]3(C)CC[C@H](O)C[C@@H]3CO)CC[C@]12C [Cpd. No. 15, (1S,3S,4R)-3-(hydroxymethyl)-4-methyl-4-((3aS,4R,5S,7aS)-7a-methyl-4-((2-methylbenzylamino)methyl)-1-methyleneoctahydro-1H-inden-5-yl)cyclohexanol] | ++
3 | C=C1CC[C@H]2[C@H](Cn3cccn3)[C@@H]([C@@]3(C)CC[C@H](O)C[C@@H]3CO)CC[C@]12C [Cpd. No. 26, (1S,3S,4R)-4-((3aS,4R,5S,7aS)-4-((1H-pyrazol-1-yl)methyl)-7a-methyl-1-methyleneoctahydro-1H-inden-5-yl)-3-(hydroxymethyl)-4-methylcyclohexanol] | ++
4 | C=C1CC[C@H]2[C@H](CNCc3ccc4c(c3)OC(F)(F)O4)[C@@H]([C@@]3(C)CC[C@H](O)C[C@@H]3CO)CC[C@]12C [Cpd. No. 37, (1S,3S,4R)-4-((3aS,4R,5S,7aS)-4-(((2,2-difluorobenzo[d][1,3]dioxol-5-yl)methylamino)methyl)-7a-methyl-1-methyleneoctahydro-1H-inden-5-yl)-3-(hydroxymethyl)-4-methylcyclohexanol] | ++
5 | C=C1CC[C@H]2[C@H](CCN(Cc3ccc(OC)cc3)Cc3ccc(OC)cc3)[C@@H]([C@@]3(C)CC[C@H](O)C[C@@H]3O)CC[C@]12C [Cpd. No. 43, (1S,3S,4R)-4-((3aS,4S,5S,7aS)-4-(2-(bis(4-methoxybenzyl)amino)ethyl)-7a-methyl-1-methyleneoctahydro-1H-inden-5-yl)-4-methylcyclohexane-1,3-diol] | ++
6 | C=C1CC[C@H]2[C@H](CCNCc3ccc(OC)cc3)[C@@H]([C@@]3(C)CC[C@H](O)C[C@@H]3O)CC[C@]12C [Cpd. No. 44, (1S,3S,4R)-4-((3aS,4S,5S,7aS)-4-(2-(4-methoxybenzylamino)ethyl)-7a-methyl-1-methyleneoctahydro-1H-inden-5-yl)-4-methylcyclohexane-1,3-diol] | ++
7 | C=C1CC[C@H]2[C@H](CCNCc3ccc4c(c3)OCO4)[C@@H]([C@@]3(C)CC[C@H](O)C[C@@H]3O)CC[C@]12C [Cpd. No. 45, (1S,3S,4R)-4-((3aS,4S,5S,7aS)-4-(2-(benzo[d][1,3]dioxol-5-ylmethylamino)ethyl)-7a-methyl-1-methyleneoctahydro-1H-inden-5-yl)-4-methylcyclohexane-1,3-diol] | −
8 | C=C1CC[C@H]2[C@H](CN)[C@@H]([C@@]3(C)CC[C@H](O)C[C@@H]3CN)CC[C@]12C [Cpd. No. 47, (1S,3S,4R)-3-(aminomethyl)-4-((3aS,4R,5S,7aS)-4-(aminomethyl)-7a-methyl-1-methyleneoctahydro-1H-inden-5-yl)-4-methylcyclohexanol] | +
9 | C=C1CC[C@H]2[C@H](O)[C@@H]([C@@]3(C)CC[C@H](O)C[C@@H]3CCn3cccc3)CC[C@]12C [Cpd. No. 52, (3aR,4R,5R,7aS)-5-((1S,2S,4S)-2-(2-(1H-pyrrol-1-yl)ethyl)-4-hydroxy-1-methylcyclohexyl)-7a-methyl-1-methyleneoctahydro-1H-inden-4-ol] | −
10 | C=C1CC[C@H]2[C@H](O)[C@@H]([C@@]3(C)CC[C@H](O)C[C@@H]3CCOc3cnccn3)CC[C@]12C [Cpd. No. 56, (3aR,4R,5R,7aS)-5-((1S,2S,4S)-4-hydroxy-1-methyl-2-(2-(pyrazin-2-yloxy)ethyl)cyclohexyl)-7a-methyl-1-methyleneoctahydro-1H-inden-4-ol] | −
11 | C=C1CC[C@H]2[C@H](COCc3ccccn3)[C@@H]([C@@]3(C)CC[C@H](O)C[C@@H]3CO)CC[C@]12C [Cpd. No. 61, (1S,3S,4R)-3-(hydroxymethyl)-4-methyl-4-((3aS,4R,5S,7aS)-7a-methyl-1-methylene-4-((pyridin-2-ylmethoxy)methyl)octahydro-1H-inden-5-yl)cyclohexanol] | ++

Further lines, results first:

Row | Scoring, Approach 2 (Initial velocity Ratio) | SMILES
12 | ++ | CC1(C)C=CC2=C1CC[C@H]([C@@]1(C)CC[C@H](O)C[C@@H]1CO)[C@H]2CO [Cpd. No. 65, (1S,3S,4R)-3-(hydroxymethyl)-4-((4R,5S)-4-(hydroxymethyl)-1,1-dimethyl-4,5,6,7-tetrahydro-1H-inden-5-yl)-4-methylcyclohexanol]
13 | + | CC1(C)C2=C(C[C@H]1O)[C@H](CO)[C@@H]([C@@]1(C)CC[C@H](O)C[C@@H]1CO)CC2 [Cpd. No. 66, (2R,4R,5S)-5-((1R,2S,4S)-4-hydroxy-2-(hydroxymethyl)-1-methylcyclohexyl)-4-(hydroxymethyl)-1,1-dimethyl-2,3,4,5,6,7-hexahydro-1H-inden-2-ol]
14 | ++ | C=C1CC[C@H]2[C@H](COCc3ccccc3)[C@@H]([C@@]3(C)CC[C@H](O)C[C@@H]3CO)CC[C@]12C [Cpd. No. 67, (1S,3S,4R)-4-((3aS,4R,5S,7aS)-4-(benzyloxymethyl)-7a-methyl-1-methyleneoctahydro-1H-inden-5-yl)-3-(hydroxymethyl)-4-methylcyclohexanol]
15 | + | C=C1CC[C@H]2[C@H](CNC(=O)c3cccnc3)[C@@H]([C@@]3(C)CC[C@H](O)C[C@@H]3CO)CC[C@]12C [Cpd. No. 69, N-(((3aS,4R,5S,7aS)-5-((1R,2S,4S)-4-hydroxy-2-(hydroxymethyl)-1-methylcyclohexyl)-7a-methyl-1-methyleneoctahydro-1H-inden-4-yl)methyl)nicotinamide]
